Measurements taken from patent publication US12528790B2, “Amide derivative having antiviral activity” (Shionogi & Co., Ltd., priority 2020, dated 2026).
Like-named read-outs stand apart in the source and are kept apart here.

Tested on: RSV A2 strain
Assay: In vitro CPE (CytoPathic Effect) inhibition effect evaluation test, RSV type A
Format: cell-based
Method: The test sample is diluted in advance to an appropriate concentration with DMSO, and 3-fold series of serial dilutions were prepared on a 384-well plate (0.32 μL/well). HEp-2 cells (CCL-23; ATCC) adjusted at appropriate number (2.4×10^5 cells/mL) in 2% FBS E-MEM (prepared by adding kanamycin and FBS to Eagle's Minimum Essential Medium; Invitrogen) were added at 12.5 μL/well to the 384-well plate previously aliquoted with the test samples. The RSV A2 strain was diluted to an appropriate concentration in a culture medium and added to the 384-well plate containing the test sample at 12.5 μL/well. The culture medium was added additionally to the 384-well plate, and the test was started with 50 μL/well. Control wells were prepared with only virus-free culture medium. The plate was incubated in a 5% CO2 incubator at 37° C. for 4 days, and the plate was then placed at room temperature for 30 minutes. CellTiter-Glo (registered trademark) 2.0 assay (Promega) was added at 15 μL/well, mixed for 30 seconds, and the plate was placed for approximately 1 hour. The luminescent signal was then measured by EnVision (PerkinElmer). The inhibitory effect of the test agents on RSV-induced CPE was calculated as 0% and 100% inhibition rate for each sample concentration based on the level of remaining viable cells by CellTiter-Glo (registered trademark) 2.0, with the EC50 value for each compound calculated by nonlinear regression as the concentration that inhibits RSV-induced CPE by 50%. In the case of evaluation against RSV type B, RSV B (Wash/18537 strain) was infected in the same manner as the type A, cultured for 5 days, and quantitated in the same manner as for the A2 strain.

[1] = human respiratory syncytial virus, inhibitory effect against RSV type A (RSV A2 strain), HEp-2 cells, CPE inhibition, read-out: EC50
[2] = inhibitory effect against RSV type A (RSV A2 strain), HEp-2 cells, CPE inhibition, read-out: EC50
[3] = human respiratory syncytial virus, HEp-2

## O=C(NC1(C(=O)O)C2CC3CC(C2)CC1C3)c1cnc(-c2cn(C3CCC(F)(F)CC3)c3cc(OC4CCC(N5CCC(F)(F)C5)CC4)ccc23)nc1C(F)(F)F (single isomer, unassigned) [Compound I-427]
[1]
  EC50: < 10 nM

## O=C(NC1(C(=O)O)C2CC3CC(C2)CC1C3)c1cnc(-c2cn(C3CCC(F)CC3)c3cc(O[C@H]4CC[C@H](N5CC(F)(F)C5)CC4)ccc23)nc1C(F)(F)F (single isomer, unassigned) [Compound I-510]
[2]
  EC50: < 10 nM

## CC(F)(F)c1nc(-c2cn(C3CCC(F)CC3)c3cc(O[C@H]4CC[C@H](N5CC(F)(F)C5)CC4)ccc23)ncc1C(=O)NC1(C(=O)O)C2CC3CC(C2)CC1C3 (single isomer, unassigned) [Compound I-571]
[2]
  EC50: < 10 nM

## O=C(NC1(C(=O)O)C2CC3CC(C2)CC1C3)c1ccc(-c2cn(C3CCC(F)CC3)c3cc(O[C@H]4CC[C@H](N5CC(F)(F)C5)CC4)ccc23)nc1C(F)(F)F (single isomer, unassigned) [Compound I-584]
[2]
  EC50: < 10 nM

## CC(=O)OCCCCOc1ccc2c(c1)CCN2c1ncc(C(=O)NC2(C(=O)O)CCCCC2)c(C(F)(F)F)n1 [Compound I-6]
[1]
  EC50: 10 to 100 nM

## O=C(NC1(C(=O)O)CCCCC1)c1cnc(N2CC3(CC3)c3cc(Br)ccc32)nc1C(F)(F)F [Compound I-10]
[1]
  EC50: 100 to 5000 nM

## COCCCCOc1ccc2c(c1)CCN2c1ncc(C(=O)NC2(C(=O)O)CC3CCC2C3)c(C(F)(F)F)n1 (stereo not drawn) [Compound I-11]
[1]
  EC50: < 10 nM

## O=C(NC1(C(=O)O)CC2CCC1C2)c1cnc(N2CCc3cc(OCCC4CCOCC4)ccc32)nc1C(F)(F)F (stereo not drawn) [Compound I-12]
[1]
  EC50: < 10 nM

## COc1cccc(COc2ccc3c(c2)CCN3c2ncc(C(=O)NC3(C(=O)O)CC4CCC3C4)c(C(F)(F)F)n2)c1 (stereo not drawn) [Compound I-13]
[1]
  EC50: < 10 nM

## COc1cccc(COc2ccc3c(c2)CCN3c2ncc(C(=O)NC3(C(=O)O)CCOCC3)c(C(F)(F)F)n2)c1 [Compound I-14]
[1]
  EC50: 100 to 5000 nM

## COc1ccc(COc2ccc3c(c2)CCN3c2ncc(C(=O)NC3(C(=O)O)CCOCC3)c(C(F)(F)F)n2)cc1 [Compound I-15]
[1]
  EC50: 10 to 100 nM

## O=C(NC1(C(=O)O)CCC(F)(F)CC1)c1cnc(N2CCc3cc(OCCC4CCOCC4)ccc32)nc1C(F)(F)F [Compound I-20]
[1]
  EC50: 10 to 100 nM

## COCCCCOc1ccc2c(c1)CCN2c1ncc(C(=O)NC2(C(=O)O)C3CC4CC(C3)CC2C4)c(C(F)(F)F)n1 (stereo not drawn) [Compound I-22]
[1]
  EC50: < 10 nM

## COc1cccc(/C=C/c2ccc3c(c2)CCN3c2ncc(C(=O)NC3(C(=O)O)CCCCC3)c(C(F)(F)F)n2)c1 [Compound I-24]
[1]
  EC50: 10 to 100 nM

## COc1ccc(CCc2ccc3c(c2)CCN3c2ncc(C(=O)NC3(C(=O)O)CCCCC3)c(C(F)(F)F)n2)cc1 [Compound I-25]
[1]
  EC50: 10 to 100 nM

## COc1cccc(CCc2ccc3c(c2)CCN3c2ncc(C(=O)NC3(C(=O)O)CCCCC3)c(C(F)(F)F)n2)c1 [Compound I-26]
[1]
  EC50: 10 to 100 nM

## COc1cc(COc2ccc3c(c2)CCN3c2ncc(C(=O)NC3(C(=O)O)CCCCC3)c(C(F)(F)F)n2)ccn1 [Compound I-27]
[3]
  EC50: 10 to 100 nM

## Cc1nc(COc2ccc3c(c2)CCN3c2ncc(C(=O)NC3(C(=O)O)CCCCC3)c(C(F)(F)F)n2)cs1 [Compound I-28]
[1]
  EC50: 10 to 100 nM

## COc1cc(COc2ccc3c(c2)CCN3c2ncc(C(=O)NC3(C(=O)O)CCCCC3)c(C(F)(F)F)n2)cc(OC)c1 [Compound I-29]
[1]
  EC50: < 10 nM

## COc1cncc(COc2ccc3c(c2)CCN3c2ncc(C(=O)NC3(C(=O)O)CCCCC3)c(C(F)(F)F)n2)c1 [Compound I-30]
[1]
  EC50: 10 to 100 nM

## CC(C)(C)OC(=O)N1CCC(Oc2ccc3c(c2)CCN3c2ncc(C(=O)NC3(C(=O)O)CCCCC3)c(C(F)(F)F)n2)CC1 [Compound I-32]
[1]
  EC50: 10 to 100 nM

## O=C(NC1(C(=O)O)CCCCC1)c1cnc(N2CCc3cc(OC4CCN(CC(F)(F)F)CC4)ccc32)nc1C(F)(F)F [Compound I-34]
[1]
  EC50: < 10 nM

## CN(C)S(=O)(=O)NC(=O)C1(NC(=O)c2cnc(N3CCc4cc(OCCC5CCOCC5)ccc43)nc2C(F)(F)F)CCCCC1 [Compound I-35]
[1]
  EC50: 10 to 100 nM

## Cc1csc(COc2ccc3c(c2)CCN3c2ncc(C(=O)NC3(C(=O)O)CCCCC3)c(C(F)(F)F)n2)n1 [Compound I-37]
[1]
  EC50: < 10 nM

## O=C(NC1(C(=O)NS(=O)(=O)N2CCOCC2)CCCCC1)c1cnc(N2CCc3cc(OCCC4CCOCC4)ccc32)nc1C(F)(F)F [Compound I-38]
[1]
  EC50: 10 to 100 nM

## COc1cccc(C(=O)Nc2ccc3c(c2)CCN3c2ncc(C(=O)NC3(C(=O)O)CCCCC3)c(C(F)(F)F)n2)c1 [Compound I-39]
[1]
  EC50: 10 to 100 nM

## COc1cccc(CNc2ccc3c(c2)CCN3c2ncc(C(=O)NC3(C(=O)O)CCCCC3)c(C(F)(F)F)n2)c1 [Compound I-40]
[1]
  EC50: < 10 nM

## O=C(NC1(C(=O)O)CCCCC1)c1cnc(N2CCc3cc(OC4CCN(c5ccccn5)CC4)ccc32)nc1C(F)(F)F [Compound I-41]
[1]
  EC50: < 10 nM

## O=C(NC1(C(=O)O)CCCCC1)c1cnc(N2CCc3cc(OC4CCN(c5nccs5)CC4)ccc32)nc1C(F)(F)F [Compound I-42]
[1]
  EC50: < 10 nM

## Cc1nsc(COc2ccc3c(c2)CCN3c2ncc(C(=O)NC3(C(=O)O)CCCCC3)c(C(F)(F)F)n2)n1 [Compound I-43]
[1]
  EC50: 10 to 100 nM

## O=C(NC1(C(=O)O)CCCCC1)c1cnc(N2CC3(CC3)c3cc(OCCC4CCOCC4)ccc32)nc1C(F)(F)F [Compound I-44]
[1]
  EC50: 10 to 100 nM

## O=C(NC1(C(=O)O)CCC1)c1cnc(N2CCc3cc(OC4CCN(c5ncccn5)CC4)ccc32)nc1C(F)(F)F [Compound I-46]
[1]
  EC50: 10 to 100 nM

## O=C(NC1(C(=O)O)CCOCC1)c1cnc(N2CCc3cc(OC4CCN(c5ncccn5)CC4)ccc32)nc1C(F)(F)F [Compound I-47]
[1]
  EC50: 10 to 100 nM

## O=C(NC1(C(=O)O)CCCC1)c1cnc(N2CCc3cc(OC4CCN(c5ncccn5)CC4)ccc32)nc1C(F)(F)F [Compound I-48]
[1]
  EC50: < 10 nM

## O=C(NC1(C(=O)O)CCC(F)(F)CC1)c1cnc(N2CCc3cc(OC4CCN(c5ncccn5)CC4)ccc32)nc1C(F)(F)F [Compound I-49]
[1]
  EC50: 10 to 100 nM

## O=C(NC1(C(=O)O)CCCCC1)c1cnc(N2CCc3cc(OC4CCN(c5cccnc5)CC4)ccc32)nc1C(F)(F)F [Compound I-51]
[1]
  EC50: 10 to 100 nM

## O=C(NC1(C(=O)O)CCCCC1)c1cnc(N2CCc3cc(OCCNc4ncccn4)ccc32)nc1C(F)(F)F [Compound I-52]
[1]
  EC50: 10 to 100 nM

## CC1(C)CN(c2ncc(C(=O)NC3(C(=O)O)CCCCC3)c(C(F)(F)F)n2)c2ccc(OCCC3CCOCC3)cc21 [Compound I-54]
[1]
  EC50: < 10 nM

## O=C(NC1(C(=O)O)CCCCC1)c1cnc(N2CC3(CCCCC3)c3cc(OCCC4CCOCC4)ccc32)nc1C(F)(F)F [Compound I-55]
[1]
  EC50: < 10 nM

## CCc1nc(COc2ccc3c(c2)CCN3c2ncc(C(=O)NC3(C(=O)O)CCCCC3)c(C(F)(F)F)n2)cs1 [Compound I-59]
[1]
  EC50: 10 to 100 nM

## O=C(NC1(C(=O)O)CCCCC1)c1cnc(N2CC3(CCN(C(=O)OCc4ccccc4)CC3)c3cc(OCCC4CCOCC4)ccc32)nc1C(F)(F)F [Compound I-61]
[1]
  EC50: < 10 nM

## CN1CCC2(CC1)CN(c1ncc(C(=O)NC3(C(=O)O)CCCCC3)c(C(F)(F)F)n1)c1ccc(OCCC3CCOCC3)cc12 [Compound I-62]
[3]
  EC50: < 10 nM

## O=C(NC1(C(=O)O)CCCCC1)c1cnc(N2CC3(CCN(C4CCC4)CC3)c3cc(OCCC4CCOCC4)ccc32)nc1C(F)(F)F [Compound I-63]
[3]
  EC50: < 10 nM

## CC(=O)N1CCC(Oc2ccc3c(c2)CCN3c2ncc(C(=O)NC3(C(=O)O)CCCCC3)c(C(F)(F)F)n2)CC1 [Compound I-64]
[1]
  EC50: 100 to 5000 nM

## CC(C)C(=O)N1CCC(Oc2ccc3c(c2)CCN3c2ncc(C(=O)NC3(C(=O)O)CCCCC3)c(C(F)(F)F)n2)CC1 [Compound I-65]
[1]
  EC50: 10 to 100 nM

## O=C(NC1(C(=O)O)CCCCC1)c1cnc(N2CCc3cc(NC4CCN(c5ncccn5)CC4)ccc32)nc1C(F)(F)F [Compound I-67]
[1]
  EC50: 10 to 100 nM

## COc1ccc2c(c1)CCN2c1ncc(C(=O)NC2(C(=O)O)C3CC4CC(C3)CC2C4)c(C(F)(F)F)n1 (stereo not drawn) [Compound I-68]
[2]
  EC50: 10 to 100 nM

## O=C(NC1(C(=O)O)CCCCC1)c1cnc(N2CCc3cc(OC4CCN(c5nccc(=O)[nH]5)CC4)ccc32)nc1C(F)(F)F [Compound I-69]
[1]
  EC50: 100 to 5000 nM

## O=C(NC1(C(=O)O)CCCCC1)c1cnc(N2CCc3cc(C4=CCCN(Cc5ccccc5)C4)ccc32)nc1C(F)(F)F [Compound I-70]
[1]
  EC50: 10 to 100 nM

## O=C(NC1(C(=O)O)CCCCC1)c1cnc(N2CCc3cc(C4=CCCN(c5ncccn5)C4)ccc32)nc1C(F)(F)F [Compound I-71]
[1]
  EC50: < 10 nM

## O=C(NC1(C(=O)O)CCCCC1)c1cnc(N2CCc3cc(O[C@@H]4CCN(c5ncccn5)C4)ccc32)nc1C(F)(F)F [Compound I-74]
[1]
  EC50: < 10 nM

## Cc1cnn(CCOc2ccc3c(c2)CCN3c2ncc(C(=O)NC3(C(=O)O)CCCCC3)c(C(F)(F)F)n2)c1 [Compound I-75]
[1]
  EC50: 10 to 100 nM

## COc1ccc2c(c1)C1(CCOCC1)CN2c1ncc(C(=O)NC2(C(=O)O)CCCCC2)c(C(F)(F)F)n1 [Compound I-76]
[1]
  EC50: 10 to 100 nM

## COc1cccnc1N1CCC(Oc2ccc3c(c2)CCN3c2ncc(C(=O)NC3(C(=O)O)CCCCC3)c(C(F)(F)F)n2)CC1 [Compound I-77]
[1]
  EC50: < 10 nM
